{"source": "patent US10561591B2", "about": "“Hair care regimen using compositions comprising moisture control materials” (The Procter & Gamble Company, priority 2015, dated 2020)", "key": {"[1]": {"experiment": "Expert rating of hair switches for frizz, clean feel and greasy feel (5 point scale) after high humidity", "conditions": "1% in ethanol/water leave-on", "description": "(§1) Additional leave-on treatment compositions are prepared (Tables 1 and 2) according to the procedure described above, which are used to treat hair switches using the procedure described above (amount of 0.10 g of composition per g of hair). […] Then, ten experts are asked to rate each hair switch in terms of frizz, clean feel, and greasy feel, based on a 5 point scale, 5 being the highest and 1 being the lowest rating.\nAcceptable values are: • For frizz, less than 2 (lower number corresponds to less frizz); • For no greasy feel less than 3, (lower number corresponds to less greasy feel), and • For clean feel greater than 3 (higher number corresponds to cleaner feel).\nas §1, with “(Tables 6” for “(Tables 1”, “and 7)” for “and 2)”, “rating. Acceptable values are: • For frizz, less than 2 (lower number corresponds to less frizz); • For no greasy feel less than 3, (lower number corresponds to less greasy feel), and • For clean feel greater than 3 (higher number corresponds to cleaner feel).” for “rating.”"}, "[2]": {"experiment": "Penetration amount of moisture control material inside hair (extraction with 0.1% TFA in methanol, HPLC)", "conditions": "2% 2-hydroxyethyl urea versus composition without (example III and IV)", "quoted_text": "Each hair tress is extracted 3 times with 0.1% TFA (Trifluoroacetic acid) in methanol and the individual extracts are analyzed separately using HPLC method."}, "[3]": {"experiment": "Dynamic Vapor Sorption (DVS) measurement: % water reduction of treated hair versus control", "description": "The % water reduction is calculated as follows: […]\nLeave-on Treatment Formulation: […]"}}}
{"smiles": "O=C(O)c1ccc(O)cc1O", "note": "[2,4-Dihydroxybenzoic acid]", "values": [{"measurement": "hair switch rating (frizz, clean feel, greasy feel), in words", "setting": "[1]", "value": "provide fizz protection with clean feel and without greasy feel negative"}]}
{"smiles": "CCCCCCCCC(CO)CCCCCC", "note": "(stereo not drawn) [2-Hexyl-1-decanol]", "values": [{"measurement": "hair switch rating (frizz, clean feel, greasy feel), in words", "setting": "[1]", "value": "provide frizz protection with clean feel and without greasy feel negative"}]}
{"smiles": "O=C(OCCO)c1ccccc1O", "note": "[2-Hydroxyethyl salicylate]", "values": [{"measurement": "hair switch rating (frizz, clean feel, greasy feel), in words", "setting": "[1]", "value": "provide frizz protection with clean feel and without greasy feel negative"}]}
{"smiles": "O=S(=O)(O)c1ccc(O)cc1", "note": "[4-Hydroxybenzenesulphonic acid]", "values": [{"measurement": "hair switch rating (frizz, clean feel, greasy feel), in words", "setting": "[1]", "value": "provide fizz protection with clean feel and without greasy feel negative"}]}
{"smiles": "O=C(O)c1cc(Cl)ccc1O", "note": "[5-Chlorosalicylic acid]", "values": [{"measurement": "hair switch rating (frizz, clean feel, greasy feel), in words", "setting": "[1]", "value": "provide fizz protection with clean feel and without greasy feel negative"}]}
{"smiles": "CC(C)CCCCCCCCCCCCCCCOC(=O)CCCCCCCCCCCCCCC(C)C", "note": "[Isostearyl isostearate]", "values": [{"measurement": "hair switch rating (frizz, clean feel, greasy feel), in words", "setting": "[1]", "value": "provide frizz protection with clean feel and without greasy feel negative"}]}
{"smiles": "O=C(O)c1ccccc1O", "note": "[Salicylic acid]", "values": [{"measurement": "increase of penetration of salicylic acid inside hair by 2-hydroxyethyl urea", "setting": "[2]", "value": 14, "unit": "%"}, {"measurement": "hair switch rating (frizz, clean feel, greasy feel), in words", "setting": "[1]", "value": "provide fizz protection with clean feel and without greasy feel negative"}]}
{"smiles": "O=CC(=O)O", "note": "[glyoxylic acid]", "values": [{"measurement": "% water reduction in regimen, in words", "setting": "[3]", "value": "further increase % water reduction"}]}
